# Measurements taken from patent publication US20080027010A1, “Treatment of refractory cancers using Na+/K+-ATPase inhibitors” (Bionaut Pharmaceuticals, Inc., priority 2004, published 2008).
# “Also recorded” adds a separate entry of the source.
# Legend:
# [1] = test system: VEGF; experiment: VEGF secretion in tumor cells; type: cell-based; settings: FIG. 8
# [2] = test system: several different cancer cell lines; experiment: Proliferation of several different cancer cell lines; type: cell-based
# [3] = test system: Na/K-ATPase; settings: cited from earlier work
# [4] = test system: HIF-1α; experiment: HIF-1α Western blot in human tumor cells under hypoxia; type: cell-based
# Procedure: For HIF1-alpha Western blots, Hep3B cells were seeded in growth medium at a density of 7×10^6 cells per 100 mm dish. […] Samples were fractionated on 3-8% Tris-Acetate gel (Invitrogen NUPAGE system) by sodium dodecyl sulfate (SDS)-polyacrylamide gel electropherosis and transferred onto nitrocellulose membrane. […] Anti-Beta-actin monoclonal antibody (Abcam, ab6276-100) was used at a 1:5000 dilution with a 30-minute incubation at room temperature.
# The cells were placed in hypoxic conditions for 4 hours for HIF1-alpha accumulation.
# The cells were lysed and proteins were resolved by SDS-PAGE and transferred to a nylon membrane. The membrane was immunoblotted with anti-HIF-1α and anti-HIF1β MAb, and anti-beta-actin antibodies.
# HIF-1α and β-actin protein level was determined by western blotting.
# [5] = test system: HIF-1α; experiment: HIF-1α induced under normoxia by PHD inhibitor L-mimosone in Hep3B cells, Western blot; type: cell-based, human
# Procedure: Abundance of HIF-1α and β-actin was determined by western blotting.
# [6] = test system: Panc-1 human pancreatic xenograft; experiment: Panc-1 human pancreatic tumor xenograft in nude mice; type: in vivo; settings: Panc-1 xenografts in nude mice; FIGS. 16, 17, 22
# Procedure: The control animals received pumps containing vehicle (50% DMSO in DMEM). The mice treated with standard chemotherapy agent received intra-peritoneal injections of Gemcitabine at 40 mg/kg every 3 days for 4 treatments (q3d×4). Each data point represent average tumor weight (n=8) and error bars indicate SEM.
# [7] = test system: Caki-1 human renal cancer xenograft; type: in vivo; settings: xenografted Caki-1 human renal tumors in nude mice; FIG. 23
# Source text: Female nude mice (nu/nu) between 5 and 6 weeks of age weighing approximately 20 g were implanted subcutaneously (s.c.) by trocar with fragments of human tumors harvested from s.c. grown tumors in nude mice hosts. […] Each group contains 8-10 mice, each of which was ear tagged and followed throughout the experiment.
# The administration of drugs or controls began the day the animals were pair-matched (Day 1). […] Mice were weighed and tumor measurements were obtained using calipers twice weekly, starting Day 1. These tumor measurements were converted to mg tumor weight by standard formula, (W^2×L)/2. The experiment is terminated when the control group tumor size reached an average of about 1 gram. Upon termination, the mice were weighed, sacrificed and their tumors excised. The tumors were weighed and the mean tumor weight per group was calculated.
# [8] = mice
# [9] = cited from earlier work
# [10] = cited from earlier work; remark: listed apart in the source
# [11] = test system: A549 Sentinel Line; experiment: Sentinel Line beta-galactosidase reporter assay (FACS, FDG loading); type: cell-based, human; settings: 40 hrs; mitoxantrone 8 nM, paclitaxel 1.5 nM, carboplatin 15 μM, Iressa 4 μM
# Procedure: The expression level of beta-galactosidase gene in sentinel lines was determined by using a fluorescent substrate fluorescein di-β-D-Galactopyranside (FDG, Marker Gene Tech, #M0250) introduced into cells by hypotonic shock. Cleavage by beta-galactosidase results in the production of free fluorescein, which is unable to cross the plasma membrane and is trapped inside the beta-gal positive cells. Briefly, the cells to be analyzed are trypsinized, and resuspended in PBS containing 2 mM FDG (diluted from a 10 mM stock prepared in 8:1:1 mixture of water:ethanol:DMSO). The cells were then shocked for 4 minutes at 37° C. and transferred to FACS tubes containing cold 1×PBS on ice. Samples were kept on ice for 30 minutes and analyzed by FACS in FL1 channel.
# Sentinel Line cells with beta-galactosidase reporter gene were plated at 1×10^5 cells/10 cm dish. […] After 40 hrs, the cells were trypsinized and the expression level of reporter gene was determined by FDG loading.
# The reporter activity was measured by FACS analysis.
smiles,measurement,setting,value
"C[C@@H]1O[C@@H](O[C@H]2C[C@@H](O)[C@]3(CO)[C@H]4[C@H](O)C[C@]5(C)[C@@H](C6=CC(=O)OC6)CC[C@]5(O)[C@@H]4CC[C@]3(O)C2)[C@H](O)[C@H](O)[C@H]1O [BNC-1, ouabain]",secretion of the angiogenesis factor VEGF,[1],directly or indirectly inhibits
same,decrease of concentration effective for inhibiting proliferation of cancer cells,[2]; combination with steroid signal modulator (Casodex),5 fold
same,IC50,"[2]; proliferation of cancer cell lines, read-out: IC50 across several different cancer cell lines",80 to 300 nM
same,order of Na/K-ATPase-inhibition,[3],Ouabain<Digoxin<Proscillaridin
"C[C@@H]1OC(OC2C=C3CCC4C(CC[C@]5(C)[C@@H](c6ccc(=O)oc6)CC[C@]45O)[C@@]3(C)CC2)[C@H](O)[C@H](O)[C@H]1O (stereo partly drawn) [BNC-4, proscillaridin]",HIF-1α expression,[4]; 0.1 μM,completely inhibits HIF-1α expression
same,HIF-1α expression,[4]; 1 μM,completely inhibits HIF-1α expression
same,HIF-1α accumulation,[5]; 200 μM L-mimosone for 18 h,blocks HIF-1α induction; also recorded: eliminated HIF-1α accumulation
same,HIF-1α accumulation,"[5]; L-mimosone, low concentration tested",did not appear to have an effect
same,secretion of the angiogenesis factor VEGF,[1],directly or indirectly inhibits
same,tumor growth,[6],significantly reduce tumor growth
same,tumor growth,[7],significantly reduce tumor growth
same,serum level corresponding to maximum toxic dose (MTD),[8],about 518 (±121) ng/ml
same,toxic serum concentration at day 1,[8]; steady state delivery,about 518±121 ng/ml
same,order of Na/K-ATPase-inhibition,[3],Ouabain<Digoxin<Proscillaridin
same,time of third plasma concentration peak,[9]; after dosing,about 10 hours
same,influence of impaired kidney function on clearance,[9]; in vivo,no influence on clearance
same,patients taken off treatment because of negative side effects,[10]; 1067 patients observed for up to 3 years,0.7%
same,doses producing typical cardiac glycoside intoxication symptoms,[10]; healthy individuals,above 4 mg p.o./d
same,"average level of side effects (nausea, seasickness, headache, vomiting, stomach cramps, diarrhea) in clinical reports","[10]; human, in vivo",5%
same,dose taken without any negative side effects,[10]; long-term medication of cardiac illnesses,up to 1.5 mg per day
same,reported cases in which therapy could be resumed after a brief hiatus,[10]; review of 47 clinical studies,> 95%
C[C@@H]1OC(OC2C=C3CCC4C5=CC[C@H](c6ccc(=O)oc6)[C@@]5(C)CCC4[C@@]3(C)CC2)[C@H](O)[C@H](O)[C@H]1O (stereo partly drawn) [BNC-151],HIF-1α expression,[4]; 1 μM,Significant inhibition of HIF-1α expression
N.N.O=C([O-])C1(C(=O)[O-])CCC1.[Pt+2] [Carboplatin],cell death and reporter activity in Sentinel Lines,[11],increases in cell death and reporter activity
C[C@H]1O[C@@H](O[C@H]2[C@@H](O)C[C@H](O[C@H]3[C@@H](O)C[C@H](O[C@H]4CC[C@@]5(C)[C@H](CC[C@@H]6[C@@H]5C[C@@H](O)[C@]5(C)[C@@H](C7=CC(=O)OC7)CC[C@]65O)C4)O[C@@H]3C)O[C@@H]2C)C[C@H](O)[C@@H]1O [Digoxin],order of Na/K-ATPase-inhibition,[3],Ouabain<Digoxin<Proscillaridin
COc1cc2ncnc(Nc3ccc(F)c(Cl)c3)c2cc1OCCCN1CCOCC1 [Iressa],cell death and reporter activity in Sentinel Lines,[11],reduction in reporter activity
"O=C1c2c(O)ccc(O)c2C(=O)c2c(NCCNCCO)ccc(NCCNCCO)c21 [mitoxanthrone, mitoxantrone]",cell death and reporter activity in Sentinel Lines,[11],increases in cell death and reporter activity
CC(=O)O[C@H]1C(=O)[C@@]2(C)[C@H]([C@H](OC(=O)c3ccccc3)[C@]3(O)C[C@H](OC(=O)[C@H](O)[C@@H](NC(=O)c4ccccc4)c4ccccc4)C(C)=C1C3(C)C)[C@]1(OC(C)=O)CO[C@@H]1C[C@@H]2O [paclitaxel],cell death and reporter activity in Sentinel Lines,[11],increases in cell death and reporter activity
